Patent publication US20220323443A1, “COMBINATION THERAPY FOR CANCER TREATMENT” (TAKEDA PHARMACEUTICAL COMPANY LIMITED, priority 2019, published 2022)

How the values were obtained:
A549 cancer cells = assay: In vitro combination study with Compound 1, Cell Titer-Glo (ATP) cell viability, 72 h; assay type: cell-based; conditions: DNA damaging agent combined with Compound 1; 72 h;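 note: Ten-by-ten dose matrices of the two agents in duplicate, compounds added 16 h post-plating, activity relative to DMSO vehicle wells, call reflects synergy evaluation from luminescence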
Method: Each combination pair was evaluated in an individual 384-well plate which contained variable doses of both compounds as single agents, as well as two, ten-by-ten matrices (in duplicate) that contained mixtures of the two test compounds. In brief, compounds were added to the cell test plates 16 hours after cell plating and then assessed for viability 72 hours later. Continuous cultures of tumor cells were maintained under standard cell culturing conditions (i.e. in a humidified chamber set at 37° C., containing atmosphere 5% carbon dioxide). […] Seventy-two hours after compound addition, ATP levels were measured to assess cell viability. Plating densities were chosen to ensure optimal linear growth over the 72 hour period.
Compound dilution and compound delivery to the assay plates were done on HighRes Robotic System (HighRes Biosolutions, Woburn, Mass., USA) with Echo™ Liquid Handler (Labcyte, Sunnyvale, Calif., USA). […] Next, these were used for compound transfer into cell assay plates. All wells were back-filled to give a constant percentage of DMSO.
The final DMSO concentration was held constant in all wells across the plate and was maintained at less than 0.5%. […] Cells treated with vehicle (DMSO) in two rows, or single compound serial dilutions in one plate columns/row served as the untreated control and single compound controls, respectively.
Compound activity in A549, COLO205, H460, HCT116, SW48, SW620 cancer cell lines was assessed using Cell Titer-Glo® (Promega [Madison, Wis., USA]). After 72 hours incubation, the plates were treated as per package insert protocol for the Promega Luminescence ATP Detection Systems. Briefly, 25 μL of cell lysis/substrate solution (provided in kit form) was added to each well and the plate was incubated at room temperature for 10 minutes. Luminescence was measured using a PHERAstar multi-label counter (BMG Labtech [Ortenberg, Germany]) or LEADseeker (GE Healthcare Life Sciences [Piscataway, N.J., USA]).
Numerical luminescence values were analyzed to generate EC50 curves and evaluate synergy. Raw Data reader files were uploaded along with automation workfiles that defined the plate and well contents. Percent activities were calculated for each well versus plate controls.
Each plate representing a single drug combination was analyzed separately. First, the viability measurements were normalized by scaling the data so that the median of the negative controls was 0 and the median of the positive controls was 100.
For the combination analysis, a response surface model was used to describe the relationship between the normalized viability and the drug concentrations. The data were fit to the model by minimizing the residual sum of squares. Based on the fitted response surface, plots of constant viability, called isobolograms, were produced.
The Combination Index and Nonlinear Blending were used as measures of drug synergy. To calculate Combination Index the 50% isobologram (which is the dose contour that has 50% viability) was used. […] A standard procedure was created to produce a call in order to characterize the viability effects for each combination (synergy, additivity, subadditivity, or antagonism). If the Combination Index existed then these measures were used to make the call.

COLO205 cancer cells = assay: as above; assay type: cell-based, human; conditions: DNA damaging agent combined with Compound 1; 72 h;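 note: Ten-by-ten dose matrices of both agents in duplicate plus single-agent dilutions, luminescent ATP read-out, percent activity per well relative to DMSO vehicle wells, synergy call from these matrices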
H460 cancer cells = assay: as above; assay type: cell-based; conditions: DNA damaging agent combined with Compound 1; 72 h;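 note: Ten-by-ten dose matrices of both drugs alongside single-agent dilutions, luminescence read 72 hours after compound addition, percent activity per well versus vehicle (DMSO) plate controls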
HCT116 cancer cells = assay: as above; assay type: cell-based; conditions: DNA damaging agent combined with Compound 1; 72 h;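 note: combination call from 10×10 dose matrices in duplicate, graded by synergy, with percent activity per well relative to DMSO vehicle controls on the same plate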
SW620 cancer cells = assay: as above; assay type: cell-based; conditions: DNA damaging agent combined with Compound 1; 72 h;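 note: Ten-by-ten dose matrices of both drugs in 384-well plates, luminescent ATP read-out, synergy evaluated against single-agent and DMSO vehicle controls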
CALU6 (Lung) = assay: In vitro combination study for selected compounds, additional cell lines; assay type: cell-based; conditions: drug combined with Compound 1
Method: (§1) In vitro anti-proliferative effects of selected compounds were tested in additional cell lines, including ovarian cancer (SKOV3) and pancreatic cancer (MIA-PACA-2) cell lines.

H-1650 (Lung) = assay: as above; assay type: cell-based; conditions: drug combined with Compound 1
Method: as §1

[1] = tested on: ovarian cancer (SKOV3) cell line; assay: as above; assay type: cell-based; conditions: drug combined with Compound 1
Method: as §1

DU-145 (Prostate) = assay: In vivo combination study, Cell Derived Xenograft; parameters: species or system mouse; conditions: DU-145 (165 mm^3); Compound 1 60 mg/kg once daily Day 1-21; drug 40 mg/kg intraperitoneally Days 1,4,8,11,15,18
Method: (§2) To investigate in vivo antitumor activity of Compound 1 in combination with other agents, tests using Cell Derived Xenograft (CDX), Patient Derived Xenograft (PDX) and Syngeneic mouse tumor isograft model were conducted. Cells or Patient Derived Tumors were inoculated by one method of the following two methods (Method A and B) as shown Table 7.
Method A; Cells were maintained in either immune deficient nude mice or immune competent mice by subcutaneous inoculation of tumor cells at various concentrations into respected mice. Method B: Patient Derived Tumor s were maintained in nude mice by subcutaneous inoculation of tumor pieces (approx. 2×2×2 mm) into nude mice. […]
Tumor size was measured by caliper and tumor volume was estimated using the equation V=(LW^2)/2, where L and W are tumor length and width, respectively and reported in cubic millimeters. […]
For synergy analyses, the observed differences in the log tumor values were used to calculate AUC values for each animal. […] The AUC for the control, or vehicle, group was calculated using the predicted values from the pairwise models described above. […]
where Ak and Bk are the k^th animal in the individual treatment groups and ABk is the k^th animal in combination treatment group. […] The standard error of the synergy score was calculated as the square root of the sum of squared standard errors across groups A, B, and AB. […]

Panc02 (Pancreatic) = assay: In vivo combination study, syngeneic mouse tumor isograft model
Method: as §2
(§3) Method A; Cells were maintained in either immune deficient nude mice or immune competent mice by subcutaneous inoculation of tumor cells at various concentrations into respected mice. Method B: Patient Derived Tumor s were maintained in nude mice by subcutaneous inoculation of tumor pieces (approx. 2×2×2 mm) into nude mice. Mice with tumor size of approximately 50 mm^3 (e.g., 40-75 mm^3) for syngeneic mouse studies or 200 mm^3 (e.g., 110-270 mm^3) for xenograft studies were randomly assigned to dose groups on the day (Day 0) before start date of dosing.
(§4) Compound 1 (crystalline form I) was suspended in 0.5 w/v % methylcellulose and administered orally to mice. Antibodies which administered in the experiment were described in Table 8.
(§5) Tumor size was measured by caliper and tumor volume was estimated using the equation V=(LW^2)/2, where L and W are tumor length and width, respectively and reported in cubic millimeters.
(§6) These values were compared across treatment groups to assess whether the differences in the trends over time were statistically significant. To compare pairs of treatment groups, the following mixed-effects linear regression model was fit to the data using the maximum likelihood method:
(§7) For synergy analyses, the observed differences in the log tumor values were used to calculate AUC values for each animal. In instances when an animal in a treatment group was removed from the study, the last observed tumor value was carried forward through all subsequent time points. The AUC for the control, or vehicle, group was calculated using the predicted values from the pairwise models described above. We defined a measure of synergy as follows:
(§8) where Ak and Bk are the k^th animal in the individual treatment groups and ABk is the k^th animal in combination treatment group. AUCcd is the model-predicted AUC for the control group and was treated as a constant with no variability. The standard error of the synergy score was calculated as the square root of the sum of squared standard errors across groups A, B, and AB. The degrees of freedom were estimated using the Welch-Satterthwaite equation. A hypothesis test was performed to determine if the synergy score differed from 0. P values were calculated by dividing the synergy score by its standard error and tested against a t-distribution (two-tailed) with the above-calculated degrees of freedom.
(§9) The effect was classified into four different categories. It was considered synergistic if the synergy score was less than 0 and additive if the synergy score wasn't statistically different from 0. If the synergy score was greater than zero, but the mean AUC for the combination was lower than the lowest mean AUC among the two single agent treatments, then the combination was sub-additive. If the synergy score was greater than zero, and the mean AUC for the combination was greater than the mean AUC for at least one of the single agent treatments, then the combination was antagonistic.

[2] = tested on: PHTX-249Pa human primary pancreatic xenografts; assay: In vivo combination study, Patient Derived Xenograft; parameters: species or system mouse
Method: as §2, §3, §4, §5, §6, §7, §8, §9

PHTXM-97Pa (Pancreatic) = assay: as above; parameters: species or system mouse
Method: as §2, §3, §4, §5, §6, §7, §8, §9

With `Nc1ccn([C@@H]2O[C@H](CO)[C@@H](O)C2(F)F)c(=O)n1` [Gemcitabine] the “Call, anti-proliferative effect of combination with Compound 1, A549” value (A549 cancer cells) was “Antagonism (>2)”, the “Call, anti-proliferative effect of combination with Compound 1, COLO205” value (COLO205 cancer cells) was “Additivity (0.7 to 1.3)” and the “Call, anti-proliferative effect of combination with Compound 1, H460” value (H460 cancer cells) was “Subadditivity (1.3 to 2)”. The “Call, anti-proliferative effect of combination with Compound 1, HCT116” value (HCT116 cancer cells) was “Additivity (0.7 to 1.3)”, the “Call, anti-proliferative effect of combination with Compound 1, SW620” value (SW620 cancer cells) was “Additivity (0.7 to 1.3)” and the “In vitro combination effect with Compound 1, Lung CALU6” value (CALU6 (Lung)) was “Additive”. The “In vitro combination effect with Compound 1, Lung H-1650” value (H-1650 (Lung)) was “Antagonism”, the “In vitro combination effect with Compound 1, Ovary SKOV3” value [1] was “Additive” and the “Result (combination with Compound 1, tumor growth)” value (shortened to “Result”) (DU-145 (Prostate)) was “Additive”. For the same compound, the “Result” value (Panc02 (Pancreatic); Panc02 (75 mm^3), Compound 1 60 mg/kg orally QD day 0-20, drug 5 mg/kg intraperitoneally QD on Day 0,3,6,9,12) was “Additive”, the CR per group (Panc02 (Pancreatic); note to Table 9, by note order: Gemcitabine study in Panc02 (75 mm^3)) was 0 CR in Gemcitabine group and 0 CR in Compound 1 group, and 0 CR in Compound 1/Gemcitabine combo group and the “Result” value ([2]; PHTX-249Pa (165 mm^3), Compound 1 40 mg/kg once daily Day 1-21, drug 20 mg/kg intraperitoneally Days 1,4,8,11,15,18) was “Additive”. For the same compound, the “Result” value ([2]; PHTX-249Pa (165 mm^3), Compound 1 40 mg/kg once daily Day 1-21, drug 40 mg/kg intraperitoneally Days 1,4,8,11,15,18) was “subadditive”, the “Result” value ([2]; PHTX-249Pa (165 mm^3), Compound 1 60 mg/kg once daily Day 1-21, drug 20 mg/kg intraperitoneally Days 1,4,8,11,15,18) was “Additive” and the “Result” value ([2]; PHTX-249Pa (165 mm^3), Compound 1 60 mg/kg once daily Day 1-21, drug 40 mg/kg intraperitoneally Days 1,4,8,11,15,18) was “subadditive”. For the same compound, the “Result” value ([2]; PHTX-249Pa (180 mm^3) FIG. 6A, Compound 1 20 mg/kg once daily Day 1-21, drug 5 mg/kg intraperitoneally Days 1,4,8,11,15,18) was “Synergistic”, the “Result” value ([2]; PHTX-249Pa (180 mm^3) FIG. 6A, Compound 1 20 mg/kg once daily Day 1-21, drug 20 mg/kg intraperitoneally Days 1,4,8,11,15,18) was “Additive” and the “Result” value ([2]; PHTX-249Pa (180 mm^3) FIG. 6A, Compound 1 40 mg/kg once daily Day 1-21, drug 5 mg/kg intraperitoneally Days 1,4,8,11,15,18) was “Additive”. For the same compound, the “Result” value ([2]; PHTX-249Pa (180 mm^3) FIG. 6A, Compound 1 40 mg/kg once daily Day 1-21, drug 20 mg/kg intraperitoneally Days 1,4,8,11,15,18) was “subadditive”, the antitumor activity ([2]; combined with Compound 1, PHTX-249 Pa human primary pancreatic xenografts, FIG. 6A) was “strong antitumor activity compared to either single treatment alone” and the “Result” value (PHTXM-97Pa (Pancreatic); PHTXM-97Pa (180 mm^3), Compound 1 20 mg/kg once daily Day 1-21, drug 5 mg/kg intraperitoneally Days 1,4,8,11,15,18) was “subadditive”. For the same compound, the “Result” value (PHTXM-97Pa (Pancreatic); PHTXM-97Pa (180 mm^3), Compound 1 20 mg/kg once daily Day 1-21, drug 20 mg/kg intraperitoneally Days 1,4,8,11,15,18) was “Additive”, the “Result” value (PHTXM-97Pa (Pancreatic); PHTXM-97Pa (180 mm^3), Compound 1 40 mg/kg once daily Day 1-21, drug 5 mg/kg intraperitoneally Days 1,4,8,11,15,18) was “subadditive” and the “Result” value (PHTXM-97Pa (Pancreatic); PHTXM-97Pa (180 mm^3), Compound 1 40 mg/kg once daily Day 1-21, drug 20 mg/kg intraperitoneally Days 1,4,8,11,15,18) was “subadditive”. For the same compound, the “Result” value (PHTXM-97Pa (Pancreatic); PHTXM-97Pa (210 mm^3), Compound 1 40 mg/kg once daily Day 1-21, drug 20 mg/kg intraperitoneally Days 1,4,8,11,15,18) was “subadditive”, the “Result” value (PHTXM-97Pa (Pancreatic); PHTXM-97Pa (210 mm^3), Compound 1 40 mg/kg once daily Day 1-21, drug 40 mg/kg intraperitoneally Days 1,4,8,11,15,18) was “subadditive” and the “Result” value (PHTXM-97Pa (Pancreatic); PHTXM-97Pa (210 mm^3), Compound 1 60 mg/kg once daily Day 1-21, drug 20 mg/kg intraperitoneally Days 1,4,8,11,15,18) was “subadditive”. The “Result” value (PHTXM-97Pa (Pancreatic); PHTXM-97Pa (210 mm^3), Compound 1 60 mg/kg once daily Day 1-21, drug 40 mg/kg intraperitoneally Days 1,4,8,11,15,18) was “subadditive”.
